PMC8632694 (Frontiers in Pharmacology, 2021)

Tests used:
[1] = when absorbed through the intestine; ref Lennernäs, 2003; cited from earlier work
[2] = Steady-state plasma pharmacokinetics of atorvastatin, 2-hydroxyatorvastatin and atorvastatin lactone after atorvastatin 40 mg once daily for 7 days, alone or co-administered with tegoprazan 50 mg or vonoprazan 20 mg; conditions: for Css,max / Tss,max: N = 28; for Css,max: mean ± SD; for Tss,max: plasma, median (minimum-maximum)
Method: Among three interventions, subjects received intervention R twice and received intervention T and V once each. Subjects were allocated to one of the four sequences: T-R-V-R, R-T-R-V, R-V-R-T, and V-R-T-R (Figure 1). There were washout periods of 7–9 days between each intervention. Furthermore, this study was carried out in three groups since entire subjects could not be studied simultaneously.
Subjects had scheduled visits on the morning of Days 1–4 for dosing and then were admitted to the Clinical Trial Center of Samsung Medical Center on the evening of Day 4. Subjects received the study drug orally with water of 150 ml after an overnight fast of at least 10 h on Days 5–7 and were required to fast for an additional 4 h postdose on Day 7.
Blood samples were centrifuged at approximately 1,800 g for 10 min at 4°C, and then the plasma samples were stored at less than -70°C until the assays.
The correction coefficients (r2) were greater than 0.99 over these concentration ranges. The precision and accuracy for mean within-run data and mean between-run data of all analytes were determined using the percentage of relative SD (%RSD) and the percentage of deviation of the mean from theoretical (%DMT).

[3] = Safety and tolerability: treatment-emergent adverse events by intervention; type: in vivo, human; conditions: neutropenia in intervention T; blood creatine phosphokinase increased in intervention R
Method: Safety was assessed based on symptom reports, physical examinations, vital signs, 12-lead ECGs, and clinical laboratory tests (hematology, clinical chemistry, and urinalysis).

CC(C)c1c(C(=O)Nc2ccccc2)c(-c2ccccc2)c(-c2ccc(F)cc2)n1CC[C@@H](O)C[C@@H](O)CC(=O)O [Atorvastatin, atorvastatin]
fraction of orally administered dose lost in the gut [1]: 76% | Css,max, geometric least squares mean ([2]; Atorvastatin alone (N = 28 for each intervention), comparison with tegoprazan): 32.4 ng/mL | Css,max, geometric least squares mean ([2]; Atorvastatin alone (N = 28 for each intervention), comparison with vonoprazan): 32.4 ng/mL | Css,max ([2]; Reference 1: first intervention, atorvastatin 40 mg alone 7 days): 37.21 ± 19.65 ng/mL | Tss,max ([2]; Reference 1: first intervention, atorvastatin 40 mg alone once daily 7 days): 0.75 (0.50–6.00) h | Css,max ([2]; Reference 2: second intervention, atorvastatin 40 mg alone 7 days): 37.37 ± 22.81 ng/mL | Tss,max ([2]; Reference 2: second intervention, atorvastatin 40 mg alone once daily 7 days): 0.75 (0.50–3.00) h | Css,max, geometric least squares mean ([2]; With Tegoprazan (N = 28)): 35.4 ng/mL | Css,max, geometric least squares mean ([2]; With Vonoprazan (N = 28)): 37.9 ng/mL | Css,max ([2]; atorvastatin 40 mg co-administered with tegoprazan 50 mg 7 days): 40.75 ± 21.52 ng/mL | Tss,max ([2]; atorvastatin 40 mg co-administered with tegoprazan 50 mg once daily 7 days): 1.25 (0.50–3.00) h | Css,max ([2]; atorvastatin 40 mg co-administered with vonoprazan 20 mg 7 days): 42.71 ± 25.76 ng/mL | Tss,max ([2]; atorvastatin 40 mg co-administered with vonoprazan 20 mg once daily 7 days): 1.50 (0.50–4.00) h | Increase of Css,max ([2]; atorvastatin co-administered with tegoprazan, not statistically significant): 9% | Increase of Css,max ([2]; atorvastatin co-administered with vonoprazan compared to atorvastatin alone): 17% | Css,max, GMR (90% CI) ([2]; ratio of atorvastatin co-administered with tegoprazan to administered alone): 1.09 (0.97–1.23) | within-subject CV of Css,max ([2]; this study, multiple doses for 7 days (data not shown)): 33.6% | subjects who discontinued the study due to AEs [3]: 1
